The record followed here is patent publication US10759785B2, “Compounds” (ENTERPRISE THERAPEUTICS LIMITED, priority 2016, dated 2020).

Counter-ions that a name gives are not always drawn.

The half-life is the time in which the quantity being followed falls by half.

Holding throughout (format): in vitro ADME
Data set [1] in a line: Hepatic stability (rat cryopreserved hepatocytes). Conditions: pH 7.4, 1 μM test compound, 1×10^6 cells/mL, 37° C., read-out: Averages. Hep Half Life Rat. The procedure:
(§1) Example 29—Hepatic Stability
(§2) Cryopreserved hepatocytes (rat and human) were obtained from Bioreclamation. Test compound stock solutions in DMSO (10 mM) were diluted with DMSO to 4 mM. Further dilution was completed to achieve a 100 μM stock (5 μL of 4 mM in 195 μL of 50:50 DMSO:hepatocyte buffer). Final test compound concentration in incubation was 1 μM. The following probe substrates were used: testosterone and carbamazepine at a final incubation concentration of 1 μM. Hepatocyte buffer was prepared (Williams E media containing phenol red and Glutamax™, 15 mM HEPES, warmed to 37° C., pH7.4 with NaOH). Cells were removed from liquid nitrogen, thawed in a waterbath, decanted into 50 mL of pre-warmed Cryopreserved Hepatocyte Recovery Media (LifeTechnologies) and centrifuged. Supernatant fraction was removed, cells were re-suspended in hepatocyte buffer and counted by trypan blue exclusion. Cell viability of >80% was required for all assays. Cells were re-suspended to 1×10^6/mL and 198 μL cell suspension added to each 96-well. 2 μL of 100 μM compound stock solution was added to relevant wells to initiate the incubation. A no cell control and two replicates of each test compound was included in every assay. Cells were incubated at 37° C., on a shaker set at 300 rpm. At each timepoint (0, 15, 30, 45, 60, 90 min) 20 μL of sample was removed from the 96-well and added to 80 μL of quench solution (acetonitrile containing 0.1% formic acid and imipramine/labetalol, 200 nM). Samples were diluted 1:1 with water using the Janus Robot and analysed by LC-MS/MS.

Data set [2] is described as follows: Hepatic stability (human cryopreserved hepatocytes). As to conditions: 1×10^6 cells/mL, 37° C.; for half-life at 1 μM: cryopreserved hepatocytes, pH 7.4, 1 μM test compound, read-out: Averages. Hep Half Life Human; for Averages. Hep Half Life Human: 1 μM test compound. The protocol: as §1, §2
A short description of data set [3]: Microsomal stability (rat microsomes). Conditions: pH 7.4, 1 μM test compound, 0.5 mg/mL protein, 1 mM NADPH, 37° C., read-out: Averages. Mic Half Life Rat. The procedure:
Example 28—Microsomal Stability
Microsomes (rat and human) were obtained from Bioreclamation. Test compound stock solutions in DMSO (10 mM) were diluted with DMSO to 2 mM. Further dilution was completed to achieve a 100 μM stock (final concentrations; 91.5% Acetonitrile: 8.5% DMSO). Final test compound concentration in incubation was 1 μM (<0.1% DMSO). The following probe substrates were used: verapamil, propranolol, metoprolol and phenacetin (rat) at a final incubation concentration of 1 μM. Assay buffer—Solution 1: 17.4 g potassium phosphate dibasic anhydrous (K2HPO4, 0.1 M) dissolved in 1 L deionised water. Solution 2: 13.6 g potassium phosphate monobasic anhydrous (KH2PO4, 0.1 M) dissolved in 1 L deionised water. Potassium phosphate solutions 1 and 2 were combined to form a pH 7.42 solution at 37° C. pH 7.4 with 2 mM magnesium chloride. NADPH (10 mM)—diluted in deionised water. Frozen microsomes were thawed at 37° C. Microsomes were diluted in assay buffer to achieve a final protein concentration of 0.5 mg/mL and 1 mM NADPH. The following procedure was completed on a Perkin Elmer Janus robotic platform in 96 well format: The microsomal incubation plate was transferred to a heater shaker at 300 rpm and solution heated to 37° C. for 10 min pre-warm. A no co-factor control at 0 and 45 min and one replicates of each test compound was included in every assay. Microsomes were incubated at 37° C., on a shaker set at 300 rpm throughout the assay. At each timepoint (0, 5, 15, 30, 45 min) 50 μL of sample was removed from the 96-well and added to 200 μL of quench solution (acetonitrile containing 0.1% formic acid and imipramine/labetalol, 200 nM). Samples were diluted 1:1 with water using the Janus Robot and analysed by LC-MS/MS.

On to `CCn1c(CNC(=O)c2nc(Br)cnc2N)[n+](CC)c2ccc(OC)cc21.O=C[O-]` [Example 2, 2-{[(3-amino-6-bromopyrazin-2-yl)formamido]methyl}-1,3-diethyl-6-methoxy-1H-1,3-benzodiazol-3-ium formate], for which the half-life at 1 μM in data set [1] was 5 min; in data set [2], 90 min; in data set [3] it was 3 min.
Consider `CCn1c(CNC(=O)c2nc(Br)cnc2N)[n+](CCO)c2ccc(OC)cc21.O=C[O-]` [Example 3, 2-{[(3-amino-6-bromopyrazin-2-yl)formamido]methyl}-1-ethyl-3-(2-hydroxyethyl)-6-methoxy-1H-1,3-benzodiazol-3-ium formate], for which the figures for the half-life at 1 μM in data set [1] and in data set [3] were 13 min and 4 min, respectively. Further, the “Averages. Hep Half Life Human” value in data set [2] is 240 min.
On the same counts, the results for `CCn1c(CNC(=O)c2nc(Br)cnc2N)[n+](CCOCCOCCO)c2ccc(OC)cc21.O=C[O-]` [Example 4, 2-{[(3-amino-6-bromopyrazin-2-yl)formamido]methyl}-1-ethyl-3-{2-[2-(2-hydroxyethoxy)ethoxy]ethyl}-6-methoxy-1H-1,3-benzodiazol-3-ium formate] are 16 min, 8 min and 240 min.
Regarding `CCn1c(CNC(=O)c2nc(Cl)cnc2N)[n+](C)c2ccc(OC)cc21.[I-]` [Example 5, 2-{[(3-amino-6-chloropyrazin-2-yl)formamido]methyl}-1-ethyl-6-methoxy-3-methyl-1H-1,3-benzodiazol-3-ium iodide], the half-life at 1 μM in data set [1] came to 5 min; in data set [2], 68 min; in data set [3] it was 4 min.
On the same counts, the results for `CCn1c(CNC(=O)c2nc(C)cnc2N)[n+](C)c2ccc(OC)cc21.[I-]` [Example 7, 2-{[(3-amino-6-methylpyrazin-2-yl)formamido]methyl}-1-ethyl-6-methoxy-3-methyl-1H-1,3-benzodiazol-3-ium iodide] are 16 min, 129 min and 7 min.
With `CCc1cnc(N)c(C(=O)NCc2n(CC)c3cc(OC)ccc3[n+]2C)n1.[I-]` [Example 8, 2-{[(3-amino-6-ethylpyrazin-2-yl)formamido]methyl}-1-ethyl-6-methoxy-3-methyl-1H-1,3-benzodiazol-3-ium iodide], the half-life at 1 μM in data set [3] was 3 min.
Same read-out and setting: the figure for `CCn1c(CNC(=O)c2nc(SC)cnc2N)[n+](C)c2ccc(OC)cc21.[I-]` [Example 9, 2-({[3-amino-6-(methylsulfanyl)pyrazin-2-yl]formamido}methyl)-1-ethyl-6-methoxy-3-methyl-1H-1,3-benzodiazol-3-ium iodide] is 3 min.
As for `CCn1c(CNC(=O)c2nc(Br)cnc2N)[n+](C)c2ccc(Cl)cc21.O=CO.O=C[O-]` [Example 11, 2-{[(3-amino-6-bromopyrazin-2-yl)formamido]methyl}-6-chloro-1-ethyl-3-methyl-1H-1,3-benzodiazol-3-ium formic acid formate], the half-life at 1 μM in data set [1] was 6 min; in data set [3], 4 min. The “Averages. Hep Half Life Human” value in data set [2] was 240 min.
`CCn1c(CNC(=O)c2nc(Br)cnc2N)[n+](C)c2ccc(F)cc21.O=C[O-]` [Example 12, 2-{[(3-amino-6-bromopyrazin-2-yl)formamido]methyl}-1-ethyl-6-fluoro-3-methyl-1H-1,3-benzodiazol-3-ium formate]: the half-life at 1 μM in data set [3] came out at 4 min.
`CCn1c(CNC(=O)c2nc(Br)cnc2N)[n+](C)c2ccc(C(F)(F)F)cc21.[I-]` [Example 13, 2-{[(3-amino-6-bromopyrazin-2-yl)formamido]methyl}-1-ethyl-3-methyl-6-(trifluoromethyl)-1H-1,3-benzodiazol-3-ium iodide]: the half-life at 1 μM in data set [1] came to 14 min; in data set [3], 5 min. Further, in data set [2], the “Averages. Hep Half Life Human” value amounted to 240 min.
With `CCn1c(CNC(=O)c2nc(Br)cnc2N)[n+](C)c2ccc(OC(F)(F)F)cc21.O=C[O-]` [Example 14, 2-{[(3-amino-6-bromopyrazin-2-yl)formamido]methyl}-1-ethyl-3-methyl-6-(trifluoromethoxy)-1H-1,3-benzodiazol-3-ium formate], the half-life at 1 μM worked out at 28 min in data set [1], 205 min in data set [2] and 11 min in data set [3].
On the same counts, the results for `CCn1c(CNC(=O)c2nc(Br)cnc2N)[n+](CC)c2ccc(C(=O)OC)cc21.[I-]` [Example 15, 2-{[(3-amino-6-bromopyrazin-2-yl)formamido]methyl}-1,3-diethyl-6-(methoxycarbonyl)-1H-1,3-benzodiazol-3-ium iodide] are 14 min, 154 min and 11 min.
The matching figures for `CCn1c(CNC(=O)c2nc(Br)cnc2N)[n+](CC)c2ccc(C(=O)N[C@@H]3CCOC3=O)cc21` [Example 17, 2-{[(3-amino-6-bromopyrazin-2-yl)formamido]methyl}-1,3-diethyl-6-{[(3R)-2-oxooxolan-3-yl]carbamoyl}-1H-1,3-benzodiazol-3-ium formate]: 32 min, 101 min and 29 min.
The matching figures for `CCn1c(CNC(=O)c2nc(Br)cnc2N)[n+](CC)c2ccc(C(=O)N[C@H]3CCOC3=O)cc21` [Example 18, 2-{[(3-amino-6-bromopyrazin-2-yl)formamido]methyl}-1,3-diethyl-6-{[(3S)-2-oxooxolan-3-yl]carbamoyl}-1H-1,3-benzodiazol-3-ium formate]: 46 min, 137 min and 61 min.
`CCn1c(CNC(=O)c2nc(Br)cnc2N)[n+](Cc2ccccc2)c2ccc(C(F)(F)F)cc21.O=C[O-]` [Example 19, 2-{[(3-Amino-6-bromopyrazin-2-yl)formamido]methyl}-3-benzyl-1-ethyl-6-(trifluoromethyl)-1H-1,3-benzodiazol-3-ium formate]: in data set [1], the half-life at 1 μM was 17 min. Besides, the “Averages. Hep Half Life Human” value in data set [2] is 240 min.
In the case of `CCn1c(CNC(=O)c2nc(Br)cnc2N)[n+](CC)c2ccc(-c3cnn(C4CCN(C(=O)OC(C)(C)C)CC4)c3)cc21.[I-]` [Example 20, 2-{[(3-amino-6-bromopyrazin-2-yl)formamido]methyl}-6-(1-{1-[(tert-butoxy)carbonyl]piperidin-4-yl}-1H-pyrazol-4-yl)-1,3-diethyl-1H-1,3-benzodiazol-3-ium iodide], the half-life at 1 μM in data set [1] came to 20 min; in data set [2] it was 70 min; in data set [3], 61 min.
With `CCn1c(CNC(=O)c2nc(Br)cnc2N)[n+](CC)c2ccc(-c3cnn(C4CCNCC4)c3)cc21.Cl.[I-]` [Example 21, 2-{[(3-amino-6-bromopyrazin-2-yl)formamido]methyl}-1,3-diethyl-6-[1-(piperidin-4-yl)-1H-pyrazol-4-yl]-1H-1,3-benzodiazol-3-ium hydrochloride iodide], the figures for the half-life at 1 μM in data set [1], in data set [2] and in data set [3] were 25 min, 66 min and 77 min, respectively.
On the same counts, the results for `CCn1c(CNC(=O)c2nc(Br)cnc2N)[n+](CC)c2ccc(-c3cnn(C4CCN(C(=N)N)CC4)c3)cc21.O=CO.O=C[O-]` [Example 22, 2-{[(3-amino-6-bromopyrazin-2-yl)formamido]methyl}-6-[1-(1-carbamimidoylpiperidin-4-yl)-1H-pyrazol-4-yl]-1,3-diethyl-1H-1,3-benzodiazol-3-ium formic acid formate] are 90 min, 67 min and more than 138 min.
